Laboratory results as given in patent US20230220416A1, “NOVEL TR[…] AND USES THEREOF” (priority 2020, published 2023).

Assays:
target cell = assay type: cell-based; conditions: for suitability of approved therapeutic compounds as transduction enhancers (result in words): no concentration stated; for transduction efficiency of a target cell, single enhancer (result in words): Amphotericin B 0.5-1 μg/mL, Silibinin 1 to 5 μM, Midostaurin 100 to 400 nM, Nystatin 100 μM, Natamycin 3 μM, Everolimus 1 μM, deoxyribonucleosides 0.3-2.5 mM, PEG-PLA-PEG 10 μg/mL, PEG-PCL-PEG 10 μg/mL, Resveratrol 5 μM, Prostaglandin E2 10 μM, Poloxamer synperonic F108 0.5-2 mg/mL, DMSO 1% (v/v), protamine salts 4 μg/mL
Excerpt: The efficiency of a transduction experiment may be determined as known in the art. Preferably, transduction efficiency may be measured by determining the vector copy number (VCN) in a single cell after a transduction experiment or by measuring the average VCN in a population of cells after a transduction experiment. “Vector copy number” or “VCN” refers to the number of copies of a vector, or portion thereof, in a cell's genome. The average VCN may be determined from a population of cells or from individual cell colonies. Exemplary methods for determining VCN include any form of polymerase chain reaction (PCR), such as qPCR or digital droplet PCR, and flow cytometry. […] 479-487 or as described in Examples 1 or 5.
Several transduction enhancers and combinations of transduction enhancers reported herein result in an increase in transduction efficiency. An “increase in transduction efficiency” refers to an increase in VCN upon transduction of a cell population by a gene therapy vector in presence of a transduction enhancer compared to the absence of a transduction enhancer.

human CD34-positive HSC = assay: Lentiviral SIN vector transduction of CD34-positive HSC at MOI 1, 3 or 5 in X-Vivo 20, VCN by qPCR (Example 1); conditions: each with 4 μg/mL protamine sulfate, VCN with protamine sulfate only set as 1, 1 μg/mL Amphotericin B, 1 mg/ml Lentiboost
Description: This vector encodes human p47phox cDNA under control of the miR223 internal promoter. Cells were transduced in presence of protamine sulfate only (resulting VCN set to 100%), or in presence of protamine sulfate (PS) plus one or more compounds tested for transduction enhancer activity. After 10 to 12 days post transduction, DNA from transduced cells was isolated, and VCNs were quantified by qPCR. The increase in VCN relative to the VCN achieved upon transduction in presence of protamine sulfate only was expressed as “fold induction rel. to PS”.
Thawed cells from healthy donors were cultured in 96 well plates comprising X-Vivo 20 medium supplemented with 1% human serum albumin, 300 μg/ml stem cell factor (SCF), 300 μg/ml fins like tyrosine kinase 3 (FLT-3) ligand (Flt3-lig) and 100 μng/ml Thrombopoietin (TPO) at a density of 0.5 E6 cells/cm^2, and at a concentration of 1E6 cells/ml for 22h, optionally followed by 2h of pre-stimulation with below mentioned compounds. Afterwards, cells were incubated for transduction with the lentiviral SIN gene therapy vector for 12 h in presence of the compounds indicated below and protamine sulfate. After the 12 h transduction period, the medium was exchanged by above mentioned medium, and cells were transferred to 12-well plates in which they were cultured in a volume of 1 ml for 5 to 7 days depending on cell density. Thereafter, medium was exchanged by fresh medium, and cells were cultured in 2 ml for another 6 days. At day 12 post transduction, DNA was isolated, and vector copy number (VCN) was quantified by qPCR. All experiments were conducted in triplicates. For negative control, a triplicate of non-transduced cells was cultured as described. To determine the baseline of transduction efficacy in presence of only protamine sulfate, cells were incubated with MOI 1, MOI 3 or MOI 5 of the lentiviral SIN vector in presence of 4 μg/mL protamine sulfate.
After 10 to 12 days, non-integrated pro-viral DNA was diluted out due to the proliferation of cells in the plate and VCNs were quantified thereafter by qPCR. Every condition was tested in triplicates and the average of VCNs of triplicates for each individual condition was calculated. To evaluate the transduction enhancement activity of the tested compounds, average VCNs of cells transduced in the presence of protamine sulfate was set as 1, and enhancement of transduction was expressed as X-fold increase relative to transduction in the presence of protamine sulfate only.

Human CD34+HSC = assay: Lentiviral SIN vector transduction of CD34+ HSC at MOI 20 with or without 1% DMSO, VCN; assay type: cell-based; conditions: 2 h pre-stimulation and 16 h incubation, X-Vivo 20, VCN without DMSO 0.915
Description: Cells were transduced in the absence and presence of 1% DMSO.
The transduction process comprised a 2 h pre-stimulation period in presence of 1% DMSO, followed by 16 h incubation of pre-stimulated cells with the gene therapy vector with an MOI 20 in presence of 1% DMSO.

[1] = MOI of 1, 5 μM Silibinin, 5 μM Resveratrol, 1 μM Everolimus, 0,4 μM Midostaurin, 100 μM Nystatin, 3 μM Natamycin

Compound | suitability of approved therapeutic compounds as transduction enhancers (result in words) (target cell) | increase in the efficiency of lentiviral transduction (VCN), fold induction rel. to PS (human CD34-positive HSC; [1]) | transduction efficiency of a target cell, single enhancer (result in words) (target cell) | vector copy number (VCN) (Human CD34+HSC) | increase in the efficiency of lentiviral transduction (VCN), fold induction rel. to PS (human CD34-positive HSC; MOI of 3, 1 μM Everolimus)
C[C@@H]1C/C=C/C=C/C=C/C=C/[C@H](O[C@@H]2O[C@H](C)[C@@H](O)[C@H](N)[C@@H]2O)C[C@@H]2O[C@](O)(C[C@@H](O)C[C@H]3O[C@@H]3/C=C/C(=O)O1)C[C@H](O)[C@H]2C(=O)O [Natamycin] | efficient transduction enhancers |  |  |  | 
C[C@@H]1[C@H](O)[C@@H](C)/C=C/C=C/CC/C=C/C=C/C=C/C=C/C(O[C@H]2O[C@H](C)[C@@H](O)[C@H](N)[C@@H]2O)CC2O[C@](O)(CC(O)C(O)CCC(O)CC(O)CC(O)CC(=O)O[C@H]1C)CC(O)C2C(=O)O (stereo partly shown) [Nystatin] | efficient transduction enhancers | (factor 2.6) fold | enhances the transduction efficiency |  | 
C[S+](C)[O-] [DMSO, Dimethyl sulfoxide] |  |  | enhances the transduction efficiency | 1.16 | 
CO[C@H]1C[C@@H]2CC[C@@H](C)[C@@](O)(O2)C(=O)C(=O)N2CCCC[C@H]2C(=O)O[C@H]([C@H](C)C[C@@H]2CC[C@@H](OCCO)[C@H](OC)C2)CC(=O)[C@H](C)/C=C(\C)[C@@H](O)[C@@H](OC)C(=O)[C@H](C)C[C@H](C)/C=C/C=C/C=C/1C [Everolimus] |  | (factor 13.5) fold | enhances the transduction efficiency |  | (factor 2.5) fold
CCCCC[C@H](O)/C=C/[C@H]1[C@H](O)CC(=O)[C@@H]1C/C=C\CCCC(=O)O [Prostaglandin E2] |  |  | enhances the transduction efficiency |  | 
Nc1nc(F)nc2c1ncn2[C@@H]1O[C@H](CO)[C@@H](O)[C@@H]1O [Fludarabine] | efficient transduction enhancers |  |  |  | 
CO[C@@H]1[C@H](N(C)C(=O)c2ccccc2)C[C@H]2O[C@]1(C)n1c3ccccc3c3c4c(c5c6ccccc6n2c5c31)C(=O)NC4 [Midostaurin] |  | (factor 4.2) fold |  |  | 
C[C@@H]1[C@H](O)[C@@H](C)/C=C/C=C/C=C/C=C/C=C/C=C/C=C/[C@H](O[C@@H]2O[C@H](C)[C@@H](O)[C@H](N)[C@@H]2O)C[C@@H]2O[C@](O)(C[C@@H](O)C[C@@H](O)[C@H](O)CC[C@@H](O)C[C@@H](O)CC(=O)O[C@H]1C)C[C@H](O)[C@H]2C(=O)O [Amphotericin B] | efficient transduction enhancers | (factor 3) fold | enhances the transduction efficiency |  | (factor 2.2) fold
2,3-Dihydro-3-(4-hydroxy-3-methoxyphenyl)-2-(hydroxymethyl)-6-(3,5,7-trihydroxy-4-oxobenzopyran-2-yl)benzodioxin [Silibinin] | efficient transduction enhancers | (factor 4.8) fold | enhances the transduction efficiency |  | 
